IC50 and inhibition data for 39 compounds are collected here from ChEMBL document CHEMBL4811250, “Discovery and Optimization of 2H-1λ2-Pyridin-2-one Inhibitors of Mutant Isocitrate Dehydrogenase 1 for the Treatment of Cancer” (J Med Chem, 2021).

The target in assay [1] is Isocitrate dehydrogenase [NADP] cytoplasmic (Homo sapiens, UniProt O75874, R132H). The assay is described as follows: Inhibition of IDH1 R132H mutant (unknown origin) assessed as reduction in NADPH consumption using alpha-KG as substrate incubated for 5 mins by diaphorase/resazurin-coupled system.
Assay [2] deals with Isocitrate dehydrogenase [NADP] cytoplasmic (Homo sapiens), O75874 [R132H]. The assay is described as follows: Inhibition of IDH1 R132H mutant (unknown origin) assessed as reduction in NADPH consumption using alpha-KG as substrate at 38 uM incubated for 5 mins by diaphorase/resazurin-coupled system relative to control. For orientation: Alamar Blue is a resazurin reagent that responds to reducing activity.

Assay [3] concerns Isocitrate dehydrogenase [NADP] cytoplasmic (Homo sapiens), O75874 [R132C]. Description: Inhibition of IDH1 R132C mutant (unknown origin) assessed as reduction in NADPH consumption using alpha-KG as substrate at 38 uM incubated for 5 mins by diaphorase/resazurin-coupled system relative to control.

A value given as a limit tells only on which side of the number the result lay.

Chain of Isocitrate dehydrogenase [NADP] cytoplasmic (Homo sapiens), O75874 [R132C] (O75874 whole entry R132C): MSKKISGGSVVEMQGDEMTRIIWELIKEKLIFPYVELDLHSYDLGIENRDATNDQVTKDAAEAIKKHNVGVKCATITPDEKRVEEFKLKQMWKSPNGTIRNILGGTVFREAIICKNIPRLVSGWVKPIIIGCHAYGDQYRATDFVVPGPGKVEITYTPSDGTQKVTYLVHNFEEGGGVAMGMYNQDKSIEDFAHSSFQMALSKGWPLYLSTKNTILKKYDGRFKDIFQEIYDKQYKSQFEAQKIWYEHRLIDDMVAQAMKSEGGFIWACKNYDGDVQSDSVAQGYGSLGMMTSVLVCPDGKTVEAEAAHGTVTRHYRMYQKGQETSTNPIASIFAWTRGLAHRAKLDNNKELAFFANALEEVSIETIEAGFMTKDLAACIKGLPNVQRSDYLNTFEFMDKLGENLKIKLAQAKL
Chain of Isocitrate dehydrogenase [NADP] cytoplasmic (O75874 2-414 R132H limits assumed): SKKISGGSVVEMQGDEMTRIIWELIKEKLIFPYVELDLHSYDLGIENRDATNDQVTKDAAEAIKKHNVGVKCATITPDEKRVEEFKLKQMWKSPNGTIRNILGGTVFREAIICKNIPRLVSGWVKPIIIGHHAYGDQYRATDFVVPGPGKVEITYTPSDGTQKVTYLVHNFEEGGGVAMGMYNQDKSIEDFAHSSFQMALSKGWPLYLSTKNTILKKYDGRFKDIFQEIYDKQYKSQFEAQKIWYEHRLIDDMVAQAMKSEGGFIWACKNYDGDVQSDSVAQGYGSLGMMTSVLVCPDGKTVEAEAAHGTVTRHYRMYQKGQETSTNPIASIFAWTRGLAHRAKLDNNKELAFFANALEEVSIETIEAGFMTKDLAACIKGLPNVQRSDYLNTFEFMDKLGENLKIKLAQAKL
Chain of Isocitrate dehydrogenase [NADP] cytoplasmic (Homo sapiens), O75874 [R132H] (O75874 whole entry R132H): as the sequence (O75874 whole entry R132C) above, with C132H counted along it

`CCc1cccc(CC)c1-n1c(C)c(C(=O)NC(C)C)cc(-c2nc(-c3ccc(Cl)cc3)cs2)c1=O`: the IC50 (as a rule, the concentration at which inhibition is half-maximal) in assay [1] was determined as 2.8 µM. The values for the inhibition in assay [2] and in assay [3] were 47% and 54%, respectively.

Regarding `COc1cc(C(=O)O)ccc1-n1c2c(cc(-c3nc(-c4ccc(Cl)cc4)cs3)c1=O)C(=O)CC(C)(C)C2`, in assay [3], the inhibition – broadly, the change of the read-out against control, counted positive when it falls – is 43%.

Regarding `CC1(C)CC(=O)c2cc(-c3nc(-c4ccc(Cl)cc4)cs3)c(=O)n(-c3ccccc3OCc3ccccc3)c2C1`, the inhibition in assay [2] was 38%; in assay [3] it was 61%.

Consider `CC1(C)CC(=O)c2cc(-c3nc(-c4ccc(Cl)cc4)cs3)c(=O)n(-c3ccccn3)c2C1`, for which the inhibition in assay [2] was 47%; in assay [3], 39%.

Regarding `CCc1cccc(CC)c1-n1c(C)c(C(=O)N2CCCCC2)cc(-c2nc(-c3ccc(Cl)cc3)cs2)c1=O`, the values for the inhibition in assay [2] and in assay [3] were 51% and 65%, respectively.

On to `COc1ccc(OC)c(-n2c3c(cc(-c4nc(-c5ccc(Cl)cc5)cs4)c2=O)C(=O)CC3)c1`, for which the inhibition is 38% in assay [2] and 29% in assay [3].

On to `COc1ccc(OC)c(-n2c3c(cc(-c4cc(-c5ccccc5)[nH]n4)c2=O)C(=O)CC(C)(C)C3)c1`, for which the inhibition in assay [2] turned out to be 47%; in assay [3], 41%.

Consider `CCc1cccc(CC)c1-n1c(C)c(C(=O)Nc2ccccc2)cc(-c2nc(-c3ccc(Cl)cc3)cs2)c1=O`, for which the inhibition in assay [2] stood at 40%; in assay [3], 69%.

For the compound `CC(C)n1c2c(cc(-c3nc(-c4ccc(Cl)cc4)cs3)c1=O)C(=O)CC(C)(C)C2`, the inhibition in assay [2] was 31%; in assay [3] it was 33%.

As for `COc1ccc(OC)c(-n2c3c(cc(-c4nc(-c5ccc(Cl)cc5)cs4)c2=O)C(=O)CNC3)c1`, the IC50 in assay [1] came out at 8 µM. Besides, the inhibition was 75% in assay [2] and 32% in assay [3].

For the compound `COc1ccc(OC)c(-n2c3c(cc(-c4nc(-c5ccc(Cl)cc5)cs4)c2=O)C(=O)CCC3)c1`, the inhibition in assay [2] came to 62%; in assay [3] it was 43%.

Consider `CCc1cccc(CC)c1-n1c(C)c(C(=O)NC2CCCCC2)cc(-c2nc(-c3ccc(Cl)cc3)cs2)c1=O`, for which the IC50 in assay [1] was greater than 38 µM. Moreover, the inhibition in assay [3] is 31%.

Regarding `COc1ccccc1Cn1c2c(cc(-c3nc(-c4ccc(Cl)cc4)cs3)c1=O)C(=O)CC(C)(C)C2`, the inhibition in assay [2] was determined as 61%; in assay [3] it was 53%.

Regarding `CC1(C)CC(=O)c2cc(-c3nc(-c4ccc(Cl)cc4)cs3)c(=O)n(-c3ccccc3F)c2C1`, the inhibition in assay [2] was determined as 65%; in assay [3], 49%.

Turning to `CC1(C)CC(=O)c2cc(-c3nc(-c4ccc(Cl)cc4)cs3)c(=O)n(-c3ccccc3O)c2C1`, the inhibition in assay [2] is 71%; in assay [3] it was 61%.

Turning to `CC1(C)CC(=O)c2cc(-c3nc(-c4ccc(Cl)cc4)cs3)c(=O)n(-c3ccccc3N)c2C1`, the values for the inhibition in assay [2] and in assay [3] were 57% and 42%, respectively.

On to `CC1(C)CC(=O)c2cc(-c3nc(-c4ccc(Cl)cc4)cs3)c(=O)n(-c3ccccc3)c2C1`, for which the inhibition in assay [2] turned out to be 47%; in assay [3], 38%.

Consider `COc1ccc(OC)c(-n2c3c(cc(-n4ccc(-c5ccccc5)n4)c2=O)C(=O)CC(C)(C)C3)c1`, for which the values for the inhibition in assay [2] and in assay [3] were 71% and 41%, respectively.

Turning to `COc1cccc(C)c1-n1c2c(cc(-c3nc(-c4ccc(Cl)cc4)cs3)c1=O)C(=O)CC(C)(C)C2`, in assay [1], the IC50 was 2.1 µM. The inhibition in assay [2] was found to be 81%; in assay [3], 72%.

Regarding `CC1(C)CC(=O)c2cc(-c3nc(-c4ccc(Cl)cc4)cs3)c(=O)n(-c3sccc3C#N)c2C1`, in assay [1], the IC50 turned out to be 0.26 µM. Also, the inhibition was 100% in assay [2] and 90% in assay [3].

In the case of `CCc1cccc(CC)c1-n1c(C)c(C(=O)O)cc(-c2nc(-c3ccc(Cl)cc3)cs2)c1=O`, in assay [1], the IC50 stood at 7.2 µM. Moreover, the inhibition was found to be 102% in assay [2] and 72% in assay [3].

In the case of `CC(C)c1ccccc1-n1c2c(cc(-c3nc(-c4ccc(Cl)cc4)cs3)c1=O)C(=O)CC(C)(C)C2`, the inhibition in assay [2] came out at 62%; in assay [3], 61%.

Take `COc1cccc(-n2c3c(cc(-c4nc(-c5ccc(Cl)cc5)cs4)c2=O)C(=O)CC(C)(C)C3)c1OC`: the inhibition in assay [2] amounted to 64%; in assay [3], 35%.

For `CCc1cccc(CC)c1-n1c(C)c(C(=O)NC(C)(C)C)cc(-c2nc(-c3ccc(Cl)cc3)cs2)c1=O`, the figures for the inhibition in assay [2] and in assay [3] were 65% and 49%, respectively.

For the compound `CC1(C)CC(=O)c2cc(-c3nc(-c4ccc(Cl)cc4)cs3)c(=O)n(-c3ccccc3C(F)(F)F)c2C1`, the IC50 in assay [1] is 0.27 µM. In addition, the inhibition came to 96% in assay [2] and 87% in assay [3].

In the case of `COc1ccc(OC)c(-n2c(=O)c(-c3nc(-c4ccc(Cl)cc4)cs3)cc3c(O)cccc32)c1`, the inhibition in assay [2] was determined as 35%; in assay [3], 36%.

In the case of `COc1ccc(OC)c(-n2c3c(cc(-c4c[nH]c(-c5ccccc5)n4)c2=O)C(=O)CC(C)(C)C3)c1`, the IC50 in assay [1] was determined as 2.1 µM. Further, the inhibition in assay [2] amounted to 75%; in assay [3], 39%.

For `CC1(C)CC(=O)c2cc(-c3nc(-c4ccc(Cl)cc4)cs3)c(=O)n(-c3ccccc3Cl)c2C1`, in assay [1], the IC50 came to 1.3 µM. Also, the inhibition in assay [2] came to 83%; in assay [3], 70%.

As to `COc1ccc(OC)c(-n2c3c(cc(-c4cccc(-c5ccc(Cl)cc5)n4)c2=O)C(=O)CC(C)(C)C3)c1`, the inhibition turned out to be 67% in assay [2] and 46% in assay [3].

As for `COc1ccccc1-n1c2c(cc(-c3nc(-c4ccc(Cl)cc4)cs3)c1=O)C(=O)CC(C)(C)C2`, in assay [1], the IC50 came to 2.4 µM. Also, the figures for the inhibition in assay [2] and in assay [3] were 76% and 65%, respectively.

With `CCc1cccc(CC)c1-n1c(C)c(C(=O)NCc2ccccc2)cc(-c2nc(-c3ccc(Cl)cc3)cs2)c1=O`, in assay [1], the IC50 was greater than 38 µM. The inhibition in assay [3] was determined as 41%.

In the case of `COc1ccc(OC)c(-n2c3c(cc(-c4nc(-c5ccccc5)cs4)c2=O)C(=O)CC(C)(C)C3)c1`, the IC50 in assay [1] turned out to be 1.2 µM. Further, the inhibition in assay [2] was found to be 77%; in assay [3], 59%.

As to `COc1ccc(OC)c(-n2c3c(cc(-c4nc(-c5ccc(Cl)cc5)cs4)c2=O)C(=O)NCC3)c1`, the IC50 in assay [1] was found to be 2.3 µM. Further, the results for the inhibition in assay [2] and in assay [3] were 84% and 65%, respectively.

Take `Cc1ccccc1-n1c2c(cc(-c3nc(-c4ccc(Cl)cc4)cs3)c1=O)C(=O)CC(C)(C)C2`: the inhibition in assay [2] is 74%; in assay [3], 64%.

With `CC1(C)CC(=O)c2cc(-c3nc(-c4ccc(Cl)cc4)cs3)c(=O)n(-c3ccccc3Oc3ccccc3)c2C1`, the inhibition in assay [2] was found to be 30%; in assay [3], 60%.

As to `CNc1ccccc1-n1c2c(cc(-c3nc(-c4ccc(Cl)cc4)cs3)c1=O)C(=O)CC(C)(C)C2`, the inhibition in assay [2] was found to be 59%; in assay [3] it was 43%.

Take `COc1ccc(OC)c(-n2c3c(cc(-n4cnc(-c5ccccc5)c4)c2=O)C(=O)CC(C)(C)C3)c1`: the inhibition in assay [2] turned out to be 59%; in assay [3] it was 44%.

Consider `CC1(C)CC(=O)c2cc(-c3nc(-c4ccc(Cl)cc4)cs3)c(=O)n(-c3ccccc3-c3ccccc3)c2C1`, for which the inhibition in assay [2] came out at 59%; in assay [3] it was 67%.

On to `CN(C)c1ccccc1-n1c2c(cc(-c3nc(-c4ccc(Cl)cc4)cs3)c1=O)C(=O)CC(C)(C)C2`, for which the figures for the inhibition in assay [2] and in assay [3] were 56% and 57%, respectively.
